In patent US9737525B2, “Small molecule activators of NRF2 pathway” (The General Hospital Corporation, priority 2013, dated 2017):
Entries after “also recorded” stand apart in the source; their conditions may differ.

What was measured:
[1] = molecular target: human recombinant SIRT2 deacetylase (Homo sapiens (Human), UniProt Q8IXJ6); assay: Sirtuin biochemical deacetylation assay, SIRT2; settings: for SIRT2 inhibition: dose-response
Protocol: Modulation of sirtuin activity by compounds was assessed using the Flour de Lys fluorescent biochemical assay in a 96-well format as described (Outeiro et al., 2007). The deacetylation reaction was performed at 37° C. for an hour in the presence of human recombinant enzymes: SIRT1 (BioMol-SE-239) 1 unit/per reaction, SIRT2 (BioMol-SE-251) 5 units/per reaction, or SIRT3 (BioMol-SE-270) 5 units/per reaction, compound of interest, standard buffer, 50 μM substrate, and 500 μM NAD^+ according to the manufacturer's protocol. […]

[2] = system: 5×-ARE promoter-luciferase reporter; assay: 5×-ARE-luciferase reporter assay in primary corticostriatal co-cultures; type: cell-based, mouse; settings: 5 μM, 4 hr or 16 hr
Protocol: Primary corticostriatal neuronal co-cultures were prepared from E18 mouse brains as previously described [Kaltenbach, 2010]. Mice were maintained in accordance with Duke University Medical Center Institutional Animal Care and Use Committee guidelines. For 5×-ARE-luciferase reporter assays, neurons were transfected following their isolation (Nucleofector, Lonza) with 2.5 μg Cignal Antioxidant Response Reporter dual luciferase plasmids (Qiagen/SABiosciences) and plated onto pre-established glial beds in 96 well plates. After 4 days in culture at 37° C. under 5% CO2, co-cultures were treated with the indicated compounds for 4 hr or 16 hr then harvested and read for luminescence from firefly and Renilla luciferases according to the Dual Glo luciferase protocol (Promega) using a SpectraMaxL luminometer (Molecular Devices). Each sample was measured in technical triplicate. For quantitative RT-PCR (qPCR) of ARE target genes, corticostriatal co-cultures were prepared as described above and, after 4 days in culture, treated for 6 hr with the indicated compounds followed by RNA harvesting according to the Absolutely RNA miniprep protocol (Agilent Technologies). Purified RNA was converted to cDNA using random hexamers and SuperScript First-Strand RT-PCR Synthesis (Invitrogen). […] Ct values were determined using primer sets against ARE genes Hmox1, Gclc and Nqo1]. […]

NQO1 = assay: Quantitative NQO1 inducer bioassay in Hepa1c1c7 cells; type: cell-based, murine; settings: for Effect of GSH pre-incubation on NQO1 inducer potency: 1 mM GSH at 37° C. for 30 min before cell treatment; for CD value (Concentration which Doubles the specific activity of NQO1): Hepa1c1c7 cells; for CD value (Concentration which Doubles the specific activity of NQO1) / EC (2-fold NQO1 activity): 48 hr exposure; for EC (2-fold NQO1 activity): Mus musculus, Hepa-1c1c7, Table 3, Concentration which Doubles the specific activity of NQO1, read-out: NQD1 CD
Protocol: Cells grown in 96-well plates were exposed to serial dilutions of each compound for 48 hr, and the NQO1 enzyme activity was determined in cell lysates. Results are shown as average values of 8 replicate wells. The standard deviation in each case was less than 5%.
Next, using a quantitative NQO1 inducer bioassay in murine Hepa1c1c7 cells and the CD value (Concentration which Doubles the specific activity of NQO1) as a measure of potency (see Table 2), the activities of the MIND4 analogs were tested and ranked.
Inducer potency was quantified by use of the NQO1 bioassay in Hepa1c1c7 cells as described [Prochaska, 1988]. To examine the effect of GSH on inducer potency, compounds were incubated in cell culture medium containing 1 mM GSH at 37° C. for 30 min before cell treatment.

N9 microglial cells = assay: ROS/RNI assays in stimulated N9 microglial cells; type: cell-based; settings: LPS- and TNFα-activated microglial cells, 20 hr
Protocol: N9 microglial cells were cultured in RPMI medium containing Glutamax (Invitrogen) and supplemented with 10% FBS (Endotoxin levels lower than 10 EU/ml). Cells were plated in 96 well plates (5×10^4 per well) and cultured overnight before stimulation with LPS (100 ng/ml) and TNFα (10 ng/ml) for 20 hr in medium supplemented with DMSO or with the tested compounds. ROS were detected by flow cytometry after microglia incubation with […] of 5-(and-6)-chloromethyl-2′,7′-dichlorodihydrofluorescein diacetate, acetyl ester (CM-H2DCFDA) (Invitrogen) for 20 min. The production of NO by iNOS was measured indirectly by assaying nitrites in the culture supernatant using the Griess reaction [Liu, 2013]. Briefly, […] of supernatants were incubated with equal amount of Griess reagent (1% sulphanilamide, 0.1% naphthylethylenediamine in 2% phosphoric acid solution) and the absorbance read at 550 nm after 20 min of incubation at room temperature.

BV2 microglia cells = assay: Transcriptional expression profiling in LPS-induced microglia BV2 cells (qRT-PCR); type: cell-based, mouse
Protocol: To further validate the NRF2 activating properties of MIND4, effects of the compound on repression of inflammatory responses were tested in LPS-induced BV2 microglia cells, a model in which the influence of NRF2 signaling on inflammation has been well established (Koh et al., 2011). A BV2 mouse microglia cell line was maintained in DMEM media supplemented with 10% FBS (Sigma) and antibiotic-antimycotic mix. Cells were seeded into 12 well plates at the density of 3×10^5 cells/well. Cells were treated with the indicated concentrations of MIND4, MIND4-17, and MIND4A compounds for 24 hr. Cells were then stimulated with 10 ng/ml LPS (E. coli) for 2 hr. Total RNA was isolated using ZR Miniprep kit (Zymo Research). 1 μg of total RNA was used to prepare cDNA. Gene expression was analyzed using VeriQuest SYBR green assay in Roche480 thermocycler. The sequences of gene-specific primers for qPCR were as follows: […]
Immortalized bone marrow derived mouse macrophages (iBMMs) and BV2 mouse microglia cell line were used in the present study. Both cell types were maintained in DMEM media supplemented with 10% FBS and antibiotic-antimycotic mix. Cells were seeded into 12 well plates at the density of 3×10^5 cells/well. Cells were treated with the indicated concentrations of MIND4-17 compounds for 24 hr. Cells were then stimulated with 10 ng/ml LPS (E. coli, Sigma) for 2 hr. Total RNA was isolated using ZR Miniprep kit (Zymo Research). […] of total RNA was used to prepare cDNA. Gene expression was analyzed using VeriQuest SYBR green assay (Affymetrix) in Roche480 thermocycler. Primer sequences are as described above (see Example 9).

[3] = BV2 cells, dose-dependent, 24 hr

Chain of human recombinant SIRT2 deacetylase (Q8IXJ6 whole entry): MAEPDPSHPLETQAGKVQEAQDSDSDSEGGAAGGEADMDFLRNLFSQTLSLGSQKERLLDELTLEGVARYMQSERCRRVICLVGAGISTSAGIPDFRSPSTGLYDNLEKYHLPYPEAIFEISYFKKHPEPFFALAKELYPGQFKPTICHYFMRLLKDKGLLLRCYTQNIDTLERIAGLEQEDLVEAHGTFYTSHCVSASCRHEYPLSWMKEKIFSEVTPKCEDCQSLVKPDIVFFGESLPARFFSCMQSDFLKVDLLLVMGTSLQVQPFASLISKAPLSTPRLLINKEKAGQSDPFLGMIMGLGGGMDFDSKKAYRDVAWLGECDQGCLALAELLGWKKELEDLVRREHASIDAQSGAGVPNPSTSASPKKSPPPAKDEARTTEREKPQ

Compound | IC50 ([1]; Table 3) | SIRT2 inhibition [1] | Transcriptional rate of 5×-ARE promoter-luciferase reporter [2] | Effect of GSH pre-incubation on NQO1 inducer potency (NQO1) | CD value (Concentration which Doubles the specific activity of NQO1) (NQO1) | EC (2-fold NQO1 activity) (NQO1) | Production of RNI (nitrites in supernatants) (N9 microglial cells) | ROS levels (N9 microglial cells) | Expression of inflammatory factors TNFα, IL-6, IL-1β and MCP-1 (BV2 microglia cells; [3]) | Transcription of GCLM and NQO1 (BV2 microglia cells; [3]) | IC50 ([1]; Table 1) | TNFα and IL-6 gene expression (BV2 microglia cells; 3 μM 24 hr pre-treatment, LPS-activated BV2 cells) | IL-1β and MCP-1 transcription (BV2 microglia cells; 3 μM 24 hr pre-treatment, basal and LPS-induced BV2 cells)
O=[N+]([O-])c1ccc(Sc2nnc(COc3ccccc3)n2-c2ccccc2)nc1 [MIND4-17] | > 50 µM | no inhibitory activity; also recorded: no detectable SIRT2 inhibition activity | able to induce increases in the transcriptional rate | drastically reduced the potency | 0.15 µM | 0.15 µM | reduced the production of RNI | reduced ROS levels | repressed transcriptional expression of inflammatory factors | increased transcription of the canonical NRF2 target genes GCLM and NQO1 |  |  | 
O=[N+]([O-])c1ccc(Sc2nnc(COc3ccccc3)n2-c2ccccc2)c2ncccc12 [MIND4, 5-nitro-8-{[5-(phenoxymethyl)-4-phenyl-4H-1,2,4-triazol-3-yl]thio}quinoline] | 3.5 µM | dose-dependent and selective inhibition of human recombinant SIRT2 deacetylase | able to induce increases in the transcriptional rate | much less pronounced effect | 1.3 µM | 1.3 µM | reduced the production of RNI | reduced ROS levels |  |  | 1.7 µM | correspondingly reduced | repression of both basal and LPS-induced transcription
